Reference: patent publication US8148392B2, “2-indolyl imidazo [4,5-d] phenanthroline derivatives and their use in the treatment of cancer” (Lorus Therapeutics Inc., priority 2005, dated 2012)
Entries after “also recorded” stand apart in the source; their conditions may differ.

Experiments:
[1] = test system: human leukemia CCRF-CEM cells; test: Cell cycle analysis by flow cytometry, CCRF-CEM; type: cell-based; conditions: 0.25-1 μM, 24 hours
Description: To test the ability of compounds of Formula I to block cell cycle progression, compound 3 was incubated with human colon carcinoma HT-29 or human leukemia CCRF-CEM cells to determine alterations in populations of cells at different stages of the cell cycle using flow cytometric analysis. HT-29 cells were maintained as described in Example 13. CCRF-CEM cells used in this example and subsequent examples were maintained as suspension cells in a growth medium; RPMI-1640 medium (Sigma, St. Louis, Mo.), supplemented with 2 mM L-glutamine (Gibco, Grand Island, N.Y.), 10% fetal bovine serum (FBS) (Multicell, WISENT Inc. St-Bruno, QC), antibiotic-antimycotic (Multicell), at 37° C. in a 5% CO2-humidified incubator.
The assay was carried out as follows. For HT-29 cells, 1×10^6 cells in 10 mL volume of the growth medium were seeded in 100 mm dishes. For CCRF-CEM cells, 3×10^6 cells in 10 mL volume of the growth medium were seeded in 25 cm^2 flask. […] The fluorescence of stained cells was analyzed using FACScan flow cytometer and the Cell Quest program (BD Biosciences, San Jose, Calif.). Data were evaluated using Modfit software (Verity software House, Topsham, Me.). Values were determined by gate analysis of flow cytometric plots. […]

MTF-1 = MTF-1 binding to Cyclin D1 promoter, ChIP, HT-29; type: cell-based, human; conditions: HT-29, 16 hr, versus basal level
Description: To examine decreased MTF-1 binding to the promoter region of the MTF-1-targeted gene, cell-cycle regulatory gene Cyclin D1, HT-29 cells were treated with compound 3 for 16 hr and MTF-1 binding to Cyclin D1 promoter was assessed by chromatin immuno-precipitation assay (ChIP) (Active Motif, Carlsbad, Calif.). At the end of 16 hr treatment with compound 3, the cells were fixed with 1% formaldehyde to cross-link transcriptions factors and their target chromatin. Chromatin complexes were sheared and MTF-1-bound chromatin was pulled down by using antibody to MTF-1 (Santacruz Biotechnology Inc.). Cross-linking was reversed and the MTF-1-associated DNA was amplified by polymerase chain reaction using the primers encompassing −231 to −92 region of Cyclin D1 promoter. The 5′ primer (5′-CGGACTACAGGGGCAA-3′) [SEQ ID NO:1] and the 3′ primer (5′-GCTCCAGGACTTTGCA-3′) [SEQ ID NO:2] were synthesized at Invitrogen.

HT-29 cells = test: Effect of exogenous metals on growth inhibition of HT-29 cells (XTT); type: cell-based, human; conditions: HT-29, 5 days; for effect of exogenous zinc on growth inhibition: ZnCl2 (100 μM)
Description: To determine whether metal chelation is involved in the growth inhibitory activity of compounds of Formula I, exogenous metals (ZnCl2, FeCl2.4H2O, FeCl3.4H2O, MgCl2, at 100 μM) were incubated with HT-29 cells, simultaneously with control vehicle DMSO, compound 3 (5 μM), or compound 13 (25 μM), for 5 days. […] Growth inhibition by compound 13 is predicted to occur through a different mechanism than compound 3.
To determine whether chelation of copper is involved in the growth inhibitory activity of compounds of Formula I, HT-29 cells were incubated with up to 5 μM of compound 3, in the presence or absence of 25 μM CuSO4.5H20 for 5 days.
To determine whether metal chelation is involved in the growth inhibitory activity of compound 3, various concentrations of exogenous metals were incubated with HT-29 cells, simultaneously with various concentrations of compound 3, for 5 days. The exogenous metals tested were: ZnCl2 (zinc), CuSO4.5H20 (copper), FeCl2 (iron II), FeCl3.4H20 (iron III), MgCl2 (magnesium), and CaCl2.2H20 (calcium). HT-29 cells (4×10^3/well) in 100 μL volume of the growth medium were seeded in 96-well cell culture plates and incubated overnight at 37° C. The medium was removed and replaced with a total volume of 100 μl growth medium containing concentrations of metal ions as shown in FIG. 5 with compound 3 or 0.1% DMSO vehicle control. After incubation of the cells at 37° C. for 5 days, cell viability was quantitated using the XTT (sodium 3′-[1-(phenylamino-carbonyl)-3,4-tetrazolium}-bis (4-methoxy-6-nitro) benzene sulfonic acid hydrate) calorimetric assay (Roche Applied Science, Penzberg, Germany). XTT labeling reagent (1 mg/mL) was mixed with electron-coupling reagent, following the manufacturer's instructions, and 50 μl of the mixture was added directly to the cells cultured in 100 μl growth medium. The plates were further incubated at 37° C. for 4 hours and the absorbance of each well was measured by a multi-well spectrophotometer (Bio-Tek Instruments Inc.) at 460 nm. The data were adjusted relative to the blank, and were expressed as % of cell growth compared to the DMSO control.
To determine the ability of compounds 5 and 7 to chelate metals in cells, exogenous metals were added to HT-29 cells, simultaneously with various concentrations of compounds 5 and 7. Briefly, HT-29 cells were treated with various concentrations compounds 5 and 7, plus or minus copper (25 μM CuSO4.5H20) or zinc (100 μM of ZnCl2), for 5 days. Cell viability was determined by XTT assay. The effects of copper and zinc on growth inhibition of HT-29 cells are shown in FIG. 6A for compound 5 and in FIG. 6B for compound 7.
Effect of metal ion supplements on compound 3-mediated cell growth inhibition of HT-29 cells was examined by XTT cell proliferation assay.

p21 = p21 mRNA in HT-29 tumour xenografts, RT-PCR; type: in vivo, CD-1 female nude mice; conditions: HT-29 xenograft, versus vehicle
Description: The ability of compound 3 to modulate expression of p21 in vivo was determined using the HT-29 colon tumour xenograft model as described in Example 26. The expression of p21 mRNA was analyzed by real-time polymerase chain reaction analysis using the comparative CT method as described in Example 30.

[2] = 25 μM CuSO4, low concentrations of compound (less than 2 μM)

| SMILES | cell cycle progression [1] | MTF-1 binding to Cyclin D1 promoter (MTF-1) | effect of iron(III), magnesium and calcium on growth inhibition (HT-29 cells) | effect of exogenous copper on growth inhibition (HT-29 cells; 25 μM CuSO4, high concentrations of compound (>2.5 μM)) | effect of exogenous copper on growth inhibition (HT-29 cells; [2]) | effect of exogenous zinc on growth inhibition (HT-29 cells) | effect of excess iron and magnesium on growth inhibition (HT-29 cells; metals at 100 μM, compound 3 5 μM) | p21 expression in tumour xenografts (p21) |
| --- | --- | --- | --- | --- | --- | --- | --- | --- |
| Cc1[nH]c2ccccc2c1-c1nc2c3cccnc3c3ncccc3c2[nH]1 [Compound 3] | induced a block in cell cycle progression at the G1 phase | Decreased MTF-1 binding to Cyclin D1 promoter | essentially no effect | significantly enhanced the activity | Copper impaired the growth inhibitory activities | completely impaired; also recorded: impaired the growth inhibitory activities; also recorded: completely reversed by zinc only | no effect | induced the expression of p21 |
| Cc1[nH]c2ccc(F)cc2c1-c1nc2c3cccnc3c3ncccc3c2[nH]1 [Compound 7] |  |  |  |  | copper impaired the activity only at low concentrations | zinc impaired the growth inhibitory activities |  |  |
